Assay results as given in patent US10406207B2, “Peptide conjugates of GLP-1 receptor agonists and gastrin and their use” (priority 2010, dated 2019).
Bridge positions count the residues as written; N and C are the ends. Square brackets hold non-standard residues; d marks the D form. Peptide text beside a SMILES is read from it. AEEA = NCCOCCOCC(=O)O

Legend:
human GLP-1 R = target: T1, human GLP-1 R (Homo sapiens, UniProt P43220); test: Human GLP-1 receptor efficacy assay (cAMP induction, FlashPlate); type: cell-based; details: Table 2; read-out: hGLP-1 R EC50
T1 construct: expressed in transfected cells
T1 sequence (P43220 24-463): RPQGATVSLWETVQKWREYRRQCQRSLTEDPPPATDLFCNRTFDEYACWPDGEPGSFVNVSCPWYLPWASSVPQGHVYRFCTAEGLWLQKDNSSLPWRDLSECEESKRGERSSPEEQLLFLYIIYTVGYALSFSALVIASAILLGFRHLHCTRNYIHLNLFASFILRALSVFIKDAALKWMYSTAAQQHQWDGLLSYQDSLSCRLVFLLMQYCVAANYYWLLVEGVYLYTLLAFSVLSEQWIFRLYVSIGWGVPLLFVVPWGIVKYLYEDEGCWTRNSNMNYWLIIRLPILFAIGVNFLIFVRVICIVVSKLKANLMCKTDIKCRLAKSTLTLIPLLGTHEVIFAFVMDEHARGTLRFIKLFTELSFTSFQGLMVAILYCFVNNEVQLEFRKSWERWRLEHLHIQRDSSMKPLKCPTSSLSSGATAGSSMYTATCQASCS
Description: On the day of analysis, growth medium was removed and the cells were washed once with 200 μl Tyrode buffer [Tyrode's Salts (9.6 g/l), 10 mM HEPES, pH 7.4]. […] The reaction was stopped by addition of 25 μl 0.5 M HCl and incubated on ice for 60 min.

human CCK-B R = target: T2, human CCK-B R (Homo sapiens, UniProt P32239); test: Human CCK-B receptor efficacy assay (AlphaScreen SureFire p-ERK); type: cell-based; details: Table 2; read-out: hCCK-B R EC50
T2 construct: expressed in transfected cells
T2 sequence (P32239 1-447): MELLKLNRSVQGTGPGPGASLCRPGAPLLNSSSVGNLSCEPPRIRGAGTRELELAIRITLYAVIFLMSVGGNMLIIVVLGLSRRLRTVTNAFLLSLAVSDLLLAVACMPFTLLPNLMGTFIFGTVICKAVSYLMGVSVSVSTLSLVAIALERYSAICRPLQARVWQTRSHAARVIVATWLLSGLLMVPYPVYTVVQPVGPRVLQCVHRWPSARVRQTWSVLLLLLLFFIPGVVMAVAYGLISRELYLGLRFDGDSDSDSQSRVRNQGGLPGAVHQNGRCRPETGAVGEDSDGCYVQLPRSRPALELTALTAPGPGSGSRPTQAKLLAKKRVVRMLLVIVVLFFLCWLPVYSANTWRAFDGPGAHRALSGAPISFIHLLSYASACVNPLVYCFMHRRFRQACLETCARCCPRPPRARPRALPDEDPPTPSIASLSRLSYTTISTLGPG

in vivo = test: in vivo; parameters: species or system C57Bl mice; details: mouse, sc, 100 nmol/kg; for half-life: C57Bl
Description: Two C57Bl mice were given a single subcutaneous dose of 100 nmol/kg of each peptide. […] At each time point, samples from two mice were taken. Plasma samples were analyzed after solid phase extraction (SPE) by liquid chromatography mass spectrometry (LC-MS/MS).

Row | Compound | EC50 (human GLP-1 R) | EC50 (human CCK-B R) | half-life (in vivo) | Half-life and exposure (in words) (in vivo)
1 | CC[C@H](C)[C@@H]1NC(=O)[C@H](Cc2ccccc2)NC(=O)[C@H](CC(C)C)NC(=O)[C@@H](NC(=O)[C@@H](NC(=O)[C@H](C)NC(=O)[C@H](CCC(=O)O)NC(=O)[C@H](CCC(=O)O)NC(=O)[C@H](CCC(=O)O)NC(=O)[C@H](CCSC)NC(=O)[C@H](CCC(N)=O)NC(=O)[C@H](CCCCN)NC(=O)[C@H](CO)NC(=O)[C@H](CC(C)C)NC(=O)[C@H](CC(=O)O)NC(=O)[C@H](CO)NC(=O)[C@@H](NC(=O)[C@H](Cc2ccccc2)NC(=O)[C@@H](NC(=O)CNC(=O)[C@H](CCC(=O)O)NC(=O)CNC(=O)[C@@H](N)Cc2c[nH]cn2)[C@@H](C)O)[C@@H](C)O)C(C)C)CCCCNC(=O)CC[C@@H](C(=O)N[C@@H](Cc2c[nH]c3ccccc23)C(=O)N[C@@H](CC(C)C)C(=O)N[C@@H](CCCCN)C(=O)N[C@@H](CC(N)=O)C(=O)NCCOCCOCC(=O)NCCOCCOCC(=O)N[C@@H](Cc2ccc(O)cc2)C(=O)NCC(=O)N[C@@H](Cc2c[nH]c3ccccc23)C(=O)N[C@@H](CC(C)C)C(=O)N[C@@H](CC(=O)O)C(=O)N[C@@H](Cc2ccccc2)C(N)=O)NC1=O [Compound 80, Side chain-cyclo([Lys20,Glu24]Exendin-4(1-28)-Peg3-Peg3-[Leu4]Gastrin6] (H-HGEGTFTSDLSKQMEEEAVKLFIEWLKN[AEEA][AEEA]YGWLDF-NH2; lactam 20-24) | 0.032 nM | 4 nM | 1.9 h | 
2 | CC[C@H](C)[C@H](NC(=O)[C@H](Cc1ccccc1)NC(=O)[C@H](CC(C)C)NC(=O)[C@H](CCCNC(=N)N)NC(=O)[C@@H](NC(=O)[C@H](C)NC(=O)[C@H](CCC(=O)O)NC(=O)[C@H](CCC(=O)O)NC(=O)[C@H](CCC(=O)O)NC(=O)[C@H](CCSC)NC(=O)[C@H](Cc1ccc(O)cc1)NC(=O)[C@H](CCCCN)NC(=O)[C@H](CO)NC(=O)[C@H](CC(C)C)NC(=O)[C@H](CC(=O)O)NC(=O)[C@H](CO)NC(=O)[C@@H](NC(=O)[C@H](Cc1ccccc1)NC(=O)[C@@H](NC(=O)CNC(=O)[C@H](CCC(=O)O)NC(=O)CNC(=O)[C@@H](N)Cc1c[nH]cn1)[C@@H](C)O)[C@@H](C)O)C(C)C)C(=O)N[C@@H](CCC(=O)O)C(=O)N[C@@H](Cc1ccccc1)C(=O)N[C@@H](CC(C)C)C(=O)N[C@@H](CCCCN)C(=O)NCCOCCOCC(=O)NCCOCCOCC(=O)N[C@@H](Cc1ccc(O)cc1)C(=O)NCC(=O)N[C@@H](Cc1c[nH]c2ccccc12)C(=O)N[C@@H](CC(C)C)C(=O)N[C@@H](CC(=O)O)C(=O)N[C@@H](Cc1ccccc1)C(N)=O [Compound 75, [Tyr13,Phe25]Exendin-4(1-27)-Peg3-Peg3-[Leu4]Gastrin6] (H-HGEGTFTSDLSKYMEEEAVRLFIEFLK[AEEA][AEEA]YGWLDF-NH2) | 0.035 nM | 8.4 nM | 2.5 h | 
3 | CC[C@H](C)[C@H](NC(=O)[C@H](Cc1ccccc1)NC(=O)[C@H](CC(C)C)NC(=O)[C@H](CCCNC(=N)N)NC(=O)[C@@H](NC(=O)[C@H](C)NC(=O)[C@H](CCC(=O)O)NC(=O)[C@H](CCC(=O)O)NC(=O)[C@H](CCC(=O)O)NC(=O)[C@H](CC(C)C)NC(=O)[C@H](Cc1ccc(O)cc1)NC(=O)[C@H](CCCCN)NC(=O)[C@H](CO)NC(=O)[C@H](CC(C)C)NC(=O)[C@H](CC(=O)O)NC(=O)[C@H](CO)NC(=O)[C@@H](NC(=O)[C@H](Cc1ccccc1)NC(=O)[C@@H](NC(=O)CNC(=O)[C@H](CCC(=O)O)NC(=O)CNC(=O)[C@@H](N)Cc1c[nH]cn1)[C@@H](C)O)[C@@H](C)O)C(C)C)C(=O)N[C@@H](CCC(=O)O)C(=O)N[C@@H](Cc1c[nH]c2ccccc12)C(=O)N[C@@H](CC(C)C)C(=O)N[C@@H](CCCCN)C(=O)NCCOCCOCC(=O)NCCOCCOCC(=O)N[C@@H](Cc1ccc(O)cc1)C(=O)NCC(=O)N[C@@H](Cc1c[nH]c2ccccc12)C(=O)N[C@@H](CC(C)C)C(=O)N[C@@H](CC(=O)O)C(=O)N[C@@H](Cc1ccccc1)C(N)=O [Compound 74, [Tyr13,Leu14]Exendin-4(1-27)-Peg3-Peg3-[Leu4]Gastrin6] (H-HGEGTFTSDLSKYLEEEAVRLFIEWLK[AEEA][AEEA]YGWLDF-NH2) | 0.05 nM | 8.4 nM | 3.6 h | superior to the rest
